Entries after “also recorded” stand apart in the source; their conditions may differ.
Tests used:
human wild-type CFTR [1] = target: T1, human wild-type CFTR (Homo sapiens, UniProt P13569); test: Short-circuit current in FRT cells expressing wild-type human CFTR; type: cell-based; set-up: expressed in transfected cells
Method: Short-circuit current was measured in FRT cells stably expressing wild-type human CFTR cultured on porous filters as described. The basolateral solution contained 130 mM NaCl, 2.7 mM KCl, 1.5 mM KH2PO4, 1 mM CaCl2, 0.5 mM MgCl2, 10 mM glucose, and 10 mM Na-HEPES (pH 7.3, 37° C.). In the apical solution 65 mM NaCl was replaced by Na gluconate, and CaCl2 was increased to 2 mM, and the basolateral membrane was permeabilized with 250 μg/ml amphotericin B. Short-circuit current was measured in freshly harvested adult mouse colon at 37° C. using symmetrical Krebs-bicarbonate buffer.
(§1) Fischer rat thyroid (FRT) cells stably expressing wild-type human CFTR were cultured on Snapwell inserts (Corning Costar, Corning N.Y., USA) for short-circuit current (Isc) measurements. After 6-9 days in culture, when the transepithelial resistance was >1000 Ω/cm^2, the inserts were mounted in an Ussing chamber system (World Precision Instruments, Sarasota, Fla., USA). The basolateral solution contained 130 mM NaCl, 2.7 mM KCl, 1.5 mM KH2PO4, 1 mM CaCl2, 0.5 mM MgCl2, 10 mM glucose, and 10 mM Na-HEPES (pH 7.3). In the apical bathing solution, 65 mM NaCl was replaced by Na gluconate, and CaCl2 was increased to 2 mM. Both solutions were bubbled with air and maintained at 37° C. The basolateral membrane was permeabilized with 250 μg/ml amphotericin B (26, 27). Hemichambers were connected to a DVC-1000 voltage clamp via Ag/AgCl electrodes and 3 M KCl agar bridges for Isc recording.
Short-circuit current measurement. Short-circuit current was measured in FRT cells stably expressing wild-type human CFTR cultured on porous filters as described. The basolateral solution contained 130 mM NaCl, 2.7 mM KCl, 1.5 mM KH2PO4, 1 mM CaCl2, 0.5 mM MgCl2, 10 mM glucose, and 10 mM Na-HEPES (pH 7.3, 37° C.). In the apical solution 65 mM NaCl was replaced by Na gluconate, and CaCl2 was increased to 2 mM, and the basolateral membrane was permeabilized with 250 μg/ml amphotericin B. Short-circuit current was measured in freshly harvested adult mouse colon at 37° C. using symmetrical Krebs-bicarbonate buffer.
as §1, with “Short-circuit current. Fischer” for “Fischer”
Short-circuit current measurement. Short-circuit current measurements were done as described. Briefly, Snapwell (Corning Costar, Corning, N.Y.) inserts containing CFTR-expressing FRT cells or human bronchial epithelial cells were mounted in Ussing chambers (Physiological Instruments, San Diego, Calif.). For FRT cells the hemichambers were filled with 5 ml of HCO3^−-buffered solution (basolateral) and half-Cl^− solution (apical), and the basolateral membrane was permeabilized with 250 μg/ml amphotericin B. Symmetrical HCO3^−-buffered solutions were used for human bronchial epithelial cells. Solutions were bubbled with 95% O2/5% CO2 and maintained at 37° C., and short-circuit current was measured on a DVC-1000 voltage clamp (World Precision Instruments Inc., Sarasota, Fla.) using Ag/AgCl electrodes and 3 M KCl agar bridges.

human wild-type CFTR [2] = target: T1, human wild-type CFTR; test: Cell-based plate reader (YFP iodide influx) assay of CFTR function; set-up: expressed in transfected cells; host or cells: Fischer rat thyroid (FRT) cells stably co-expressing YFP-H148Q
Summary of the method: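 YFP-quenching assay: I⁻ influx is read for 2 s baseline and 12 s after rapid I⁻ addition. The initial influx rate, from exponential regression, is a linear measure of channel function. Plates carry DMSO vehicle and 20 μM forskolin controls.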

[3] = FRT cells expressing human wild-type CFTR
[4] = FRT cells expressing human wild-type CFTR, read-out: EC50 for CFTR activation (short-circuit current)

T1 sequence (P13569 whole entry): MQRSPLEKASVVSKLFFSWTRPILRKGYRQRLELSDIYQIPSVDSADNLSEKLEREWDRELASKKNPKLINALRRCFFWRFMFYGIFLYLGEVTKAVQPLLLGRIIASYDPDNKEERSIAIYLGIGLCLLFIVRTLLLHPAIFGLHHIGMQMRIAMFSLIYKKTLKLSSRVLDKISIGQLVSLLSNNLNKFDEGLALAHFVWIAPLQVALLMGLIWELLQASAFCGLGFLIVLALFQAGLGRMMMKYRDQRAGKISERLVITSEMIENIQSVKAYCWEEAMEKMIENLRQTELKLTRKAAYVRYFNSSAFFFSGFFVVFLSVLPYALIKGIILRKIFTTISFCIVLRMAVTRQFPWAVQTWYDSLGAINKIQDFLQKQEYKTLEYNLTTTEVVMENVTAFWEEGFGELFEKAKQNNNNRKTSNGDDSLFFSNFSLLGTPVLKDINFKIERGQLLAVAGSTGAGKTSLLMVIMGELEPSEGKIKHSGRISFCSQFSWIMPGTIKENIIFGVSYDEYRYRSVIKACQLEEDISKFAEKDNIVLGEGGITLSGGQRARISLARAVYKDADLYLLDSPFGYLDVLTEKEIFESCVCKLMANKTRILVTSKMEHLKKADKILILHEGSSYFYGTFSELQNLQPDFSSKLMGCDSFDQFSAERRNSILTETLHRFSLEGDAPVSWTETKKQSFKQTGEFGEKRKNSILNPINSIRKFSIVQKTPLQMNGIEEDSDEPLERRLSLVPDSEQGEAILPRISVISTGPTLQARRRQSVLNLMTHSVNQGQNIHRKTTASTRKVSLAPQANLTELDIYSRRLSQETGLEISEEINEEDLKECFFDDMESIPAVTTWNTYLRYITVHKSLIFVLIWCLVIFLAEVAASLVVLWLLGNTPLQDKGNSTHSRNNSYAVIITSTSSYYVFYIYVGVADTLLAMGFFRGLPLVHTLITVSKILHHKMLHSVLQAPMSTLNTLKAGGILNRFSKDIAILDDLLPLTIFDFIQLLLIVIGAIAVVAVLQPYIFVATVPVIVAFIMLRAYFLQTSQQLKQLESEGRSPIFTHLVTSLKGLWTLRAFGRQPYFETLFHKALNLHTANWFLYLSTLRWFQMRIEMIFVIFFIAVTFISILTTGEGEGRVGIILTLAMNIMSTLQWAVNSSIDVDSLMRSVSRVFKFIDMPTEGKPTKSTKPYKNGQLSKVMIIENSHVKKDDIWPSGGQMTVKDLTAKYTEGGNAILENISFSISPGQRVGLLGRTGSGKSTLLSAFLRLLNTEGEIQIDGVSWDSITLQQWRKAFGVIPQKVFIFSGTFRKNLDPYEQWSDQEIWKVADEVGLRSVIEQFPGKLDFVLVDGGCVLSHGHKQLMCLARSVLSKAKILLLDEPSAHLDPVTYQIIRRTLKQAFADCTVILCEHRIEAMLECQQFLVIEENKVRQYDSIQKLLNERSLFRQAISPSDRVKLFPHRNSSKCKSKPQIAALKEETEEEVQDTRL

## CCN(CC)c1nc(Nc2ccc3ncsc3c2)nc(OC(C(F)(F)F)C(F)(F)F)n1 [6k, N′-(1,3-Benzothiazol-6-yl)-N,N-diethyl-6-[(1,1,1,3,3,3-hexafluoropropan-2-yl)oxy]-1,3,5-triazine-2,4-diamine]
Human wild-type CFTR [1]; [3]
  CFTR activation (short-circuit current), in words: full CFTR activation
Human wild-type CFTR [1]; [4]
  EC50: 30 nM
Human wild-type CFTR [2]
  EC50: ~50 nM
  fold increase in potency over benzoxazole 6j: ~3 fold
Human wild-type CFTR [2]; bicyclic aniline analogs, read-out: EC50
  EC50: 50 nM

## Nc1ccc([N+](=O)[O-])cc1-c1nc2ccccc2n(Cc2ccccc2)c1=O [CFTRact-J027, 3-(2-amino-5-nitrophenyl)-1-benzylquinoxalin-2(1H)-one]
Human wild-type CFTR [1]; 3 μM, wild-type CFTR, FRT cells
  activation of CFTR at 3 μM: nearly full activation
Human wild-type CFTR [1]; [3]
  CFTR activation (short-circuit current), in words: fully activated CFTR chloride conductance

## CCN(CC)c1nc(Nc2ccccc2)nc(OC(C(F)(F)F)C(F)(F)F)n1 [CFTRact-K089, N,N-Diethyl-6-[(1,1,1,3,3,3-hexafluoropropan-2-yl)oxy]-N′-phenyl-1,3,5-triazine-2,4-diamine]
Human wild-type CFTR [1]; 100% = 20 μM forskolin
  CFTR activation, Vmax: ~50 % Vmax
Human wild-type CFTR [1]; [3]
  CFTR activation (short-circuit current), in words: fully activated CFTR
Human wild-type CFTR [1]; [4]
  EC50: ~250 nM
Human wild-type CFTR [2]; N,N-diethyl-N′-aryl-1,3,5-triazine diamine analogs, read-out: EC50 for CFTR activation
  EC50: 240 nM
Human wild-type CFTR [2]; commercial analogs, FRT cells with YFP and wildtype CFTR, 125 nM forskolin
  % Activation: 111%
Human wild-type CFTR [2]; commercial analogs, read-out: EC50 (full-dose response assay, compounds >80% activation)
  EC50: 250 nM

## CC(C)(C)c1cc(C(C)(C)C)c(NC(=O)c2c[nH]c3ccccc3c2=O)cc1O [VX-770, reference compound]
Human wild-type CFTR [1]; [3]
  CFTR activation (short-circuit current), in words: relatively little activity; also recorded: relatively weak activity

## CNc1nc(Nc2ccccc2)nc(OCC(F)(F)C(F)F)n1 [compound 12, N-methyl-N′-phenyl-6-(2,2,3,3-tetrafluoropropoxy)-1,3,5-triazine-2,4-diamine]
Human wild-type CFTR [1]
  EC50: ~30 nM
Human wild-type CFTR [1]; [3]
  CFTR activation (short-circuit current), in words: fully activated CFTR chloride conductance; also recorded: full CFTR activation
Human wild-type CFTR [1]; [4]
  EC50: 31 nM
Human wild-type CFTR [2]
  fold better EC50 than diethylamine analog 6a: ~50 fold
  fold more potent than hexafluoropropanol analog 11: ~3 fold
Human wild-type CFTR [2]; N-methyl-N′-phenyl-1,3,5-triazine diamine analogs, read-out: EC50
  EC50: 40 nM
